Assay results from patent US6346518B1, “Itraconazole and saperconazole stereoisomers” (Janssen Pharmaceutica N.V., priority 1995, dated 2002).

Assays:
[1] = solubility in artificial gastric juice; assay type: physicochemical; settings: ambient temperature
Procedure: About 10 mg of either product was added to 100 ml artificial gastric juice (0.2 g NaCL+0.7 ml concentrated HCl diluted to 100 ml) at ambient temperature. The mixture was stirred and a sample was taken from each solution at regular intervals. The amount of dissolved active ingredient was determined following the procedure described in the previous example.

[2] = cited from earlier work
[3] = solubility in water in the absence or presence of 2-hydroxypropyl-β-cyclodextrin (saturated solutions, UV spectrometry); assay type: physicochemical; settings: ambient temperature
Procedure: A 10 ml stock solution comprising 0, 2.5, 5, 7.5, 10, 20, 30 or 40% (weight by volume) 2-hydroxypropyl-β-cyclodextrin (M.S.=0.4) was put in a 20 ml tinted vial. To each vial there was added a quantity of itraconazole or saperconazole sufficient to yield a saturated solution. The vials were sonicated for 10 minutes and all vials were checked to ascertain that an undissolved remnant remained Where all the material had dissolved, another quantity of the material was added The vials were closed and protected from light by wrapping them in aluminum foil. The vials were then shaken in an appropriate apparatus. 24Hours later the vials were checked again to ascertain that an undissolved remnant of the material remained and where necessary a further quantity of the material was added. The vials were shaken for at least 72 hours and then allowed to stand until all undissolved material had precipitated. The vials were opened and the pH of the saturated solutions was measured. An aliquot of the supernatant solution was filtered and the amount of dissolved active ingredient was measured by UV spectrometry (255 nm), if necessary after diluting said aliquot to a concentration suitable for UV spectrometry.

Aspergillus spp. = settings: compared with itraconazole; U.S. Pat. No. 4,916,134; cited from earlier work
[4] = 2-hydroxypropyl-β-cyclodextrin concentration 2.5%
[5] = 2-hydroxypropyl-β-cyclodextrin concentration 5%
[6] = 2-hydroxypropyl-β-cyclodextrin concentration 7.5%
[7] = 2-hydroxypropyl-β-cyclodextrin concentration 10%
[8] = 2-hydroxypropyl-β-cyclodextrin concentration 20%
[9] = 2-hydroxypropyl-β-cyclodextrin concentration 30%
[10] = 2-hydroxypropyl-β-cyclodextrin concentration 40%

Row | Compound | concentration of dissolved active ingredient ([1]; 1 h.) | concentration of dissolved active ingredient ([1]; 2 h.) | concentration of dissolved active ingredient ([1]; 3 h.) | concentration of dissolved active ingredient ([1]; 4 h.) | concentration of dissolved active ingredient ([1]; 6 h.) | concentration of dissolved active ingredient ([1]; 26 h.) | concentration of dissolved active ingredient ([1]; 46 h.) | concentration of dissolved active ingredient ([1]; 51 h.) | concentration of dissolved active ingredient ([1]; 69 h.) | solubility in water [2] | concentration in water [3, 4] | concentration in water [3, 5] | concentration in water [3, 6] | concentration in water [3, 7] | concentration in water [3, 8] | concentration in water [3, 9] | concentration in water [3, 10] | further results
1 | CCC(C)n1ncn(-c2ccc(N3CCN(c4ccc(OCC5COC(Cn6cncn6)(c6ccc(Cl)cc6Cl)O5)cc4)CC3)cc2)c1=O (racemic) [itraconazole, (±)-cis-4-[4-[4-[4-[[2-(2,4-dichlorophenyl)-2-(1H-1,2,4-triazol-1-ylmethyl)-1,3-dioxolan-4-yl]methoxy]phenyl]-1-piperazinylphenyl]-2,4-dihydro-2-(1-methyl-propyl)-3H-1,2,4-triazol-3-one] | 0.023 mg/100 ml | 0.079 mg/100 ml | 0.15 mg/100 ml | 0.19 mg/100 ml | 0.27 mg/100 ml | 0.40 mg/100 ml | 0.40 mg/100 ml | 0.41 mg/100 ml | 0.45 mg/100 ml | only very sparingly soluble in water | 0.36 mg/100 ml | 1.79 mg/100 ml | 4.74 mg/100 ml | 10.28 mg/100 ml | 50 mg/100 ml | 95 mg/100 ml | 174 mg/100 ml | 
2 | CCC(C)n1ncn(-c2ccc(N3CCN(c4ccc(OCC5COC(Cn6cncn6)(c6ccc(F)cc6F)O5)cc4)CC3)cc2)c1=O (racemic) [saperconazole, (±)-cis-4-[4-[4-[4-[[2-(2,4-difluorophenyl)-2-(1H-2,4-triazol-1-yl-methyl)-1,3-dioxolan-4-yl]methoxylphenyl]-1-piperazinyl]-phenyl]-2,4-dihydro-2-(1-methylpropyl)-3H-1,2,4-triazol-3-one] |  |  |  |  |  |  |  |  |  | only very sparingly soluble in water |  |  |  |  |  |  |  | activity against Aspergillus spp. (Aspergillus spp.): improved activity against Aspergillus spp.
3 | (+)-[2R-[2α,4α, 4(R)]]-4-[4-[4-[4[[dichlorophenyl)-2-(1H-1,2,4-triazol-1-ylmethyl)-1,3-dioxolan-4-yl]methoxy]phenyl]-1-piperazinyl]phenyl]-2,4-dihydro-2-(1-methylpropyl)-3H-1,2,4-triazol-3-one [Compound 4] |  |  |  |  |  |  |  |  |  |  | 2.43 mg/100 ml | 15.84 mg/100 ml | 41.70 mg/100 ml | 83.72 mg/100 ml | 481 mg/100 ml | 1166 mg/100 ml | 2017 mg/100 ml | 
4 | (+)-[2S-[2α, 4α, 4(R)]1-4-[4-[4-[4-[[2-(2,4-dichlor triazol-1-ylmethyl)-1,3-dioxolan-4-yl]methoxy]phenyl]-1-piperazinyl]phenyl]-2,4-dihydro-2-(1-methylpropyl)-3H-1,2,4-triazol-3-one [Compound 3] | 0.32 mg/100 ml | 0.69 mg/100 ml | 1.09 mg/100 ml | 1.41 mg/100 ml | 1.94 mg/100 ml | 3.93 mg/100 ml | 5.08 mg/100 ml | 5.39 mg/100 ml | 6.36 mg/100 ml |  |  |  |  |  |  |  |  | concentration of dissolved active ingredient ([1]; 5 min.): 0.005 mg/100 ml; concentration of dissolved active ingredient ([1]; 15 min.): 0.037 mg/100 ml; concentration of dissolved active ingredient ([1]; 30 min.): 0.15 mg/100 ml
5 | (−)-[2S-[2α, 4α, 4(S)[[-4-[4-[4-[4-[[2-(2,4-dichlorophenyl-2(1H-1,2,4-triazol-1-ylmethyl)-1,3-dioxolan-4-yl]methoxy]phenyl]-1-piperazinyl]phenyl ]-2,4-dihydro-2-(1-methylpropyl)-3H-1,2,4-triazol-3-one [Compound 2] |  |  |  |  |  |  |  |  |  |  | 3.58 mg/100 ml | 16.36 mg/100 ml | 41.39 mg/100 ml | 78.16 mg/100 ml | 332 mg/100 ml | 846 mg/100 ml | 1720 mg/100 ml | 
